Experimental data published in US7217708B2, “3,7-Diazabicyclo [3.3.1] formulations as anti-arrhythmic compounds” (Astrazeneca AB, priority 2001, dated 2007).

CC(C)(C)OC(=O)NCCN1CC2CN(CCCNc3ccc(C#N)cc3)CC(C1)O2 [Example 23, Compound B]
melting point: 113.5 °C
